The values that follow are results of earlier work, collected in patent US20050009782A1, “Antiviral charged polymers that exhibit resistance to lysosomal degradation during kidney filtration and renal passage, compositions and methods of use thereof” (priority 2003, published 2005).

Data set [1] deals with HIV. To be noted: for In vitro activity: listed virus = activity demonstrated; for inhibition of HIV replication: in vitro; for inhibition of HIV replication / inhibition of HIV in vitro: reported in literature.
In another data set the test system is HSV. To be noted: for In vitro activity: listed virus = activity demonstrated; for inhibition of herpes simplex viruses in vitro: reported in literature.
A further data set concerns HSV-1. To be noted: listed virus = activity demonstrated.
A further data set has as its system CMV. To be noted: for In vitro activity: listed virus = activity demonstrated; for inhibition of cytomegaloviruses in vitro: reported in literature.
A further data set relates to measles. The note with it: listed virus = activity demonstrated.
In the next data set the test system is mumps. The note with it: listed virus = activity demonstrated.
The test system of a further data set is Chlamydia. To be noted: listed organism = activity demonstrated.
A further data set has as its system HHV-7. To be noted: listed virus = activity demonstrated.
Another data set concerns Denge virus. The note with it: listed virus = activity demonstrated.
The subject of a further data set is MLV. The note with it: listed virus = activity demonstrated.
The test system of a further data set is paramyxoviruses. To be noted: reported in literature.
A further data set has as its system semlikiviruses. To be noted: reported in literature.
The test system of the next data set is RLV. To be noted: listed virus = activity demonstrated.
The next data set concerns HIV-1. To be noted: listed virus = activity demonstrated.
The subject of another data set is HSV-2. To be noted: listed virus = activity demonstrated.
Data set [2] has as its system HIV.

Regarding “2-acetamido-2-deoxy-3-O-sulfo(14)-beta-D-glycopyranan”, in the data set with HIV [1], the In vitro activity result is “HIV”.
“3′ sulfogalactosylceramide [Sulfatide (3′ sulfogalactosylceramide)]”: the In vitro activity entry in the data set with HIV [1] is listed as “HIV”.
With `N[C@H]1C(O)O[C@H](COS(=O)(=O)O)[C@@H](O)[C@@H]1O` (stereo partly drawn) [Glucosamine-6-sulfate (monosaccharide), Glucosamine-6-sulfate], in the data set with HIV [1], the In vitro activity entry is “HIV”.
As to `O=S(=O)(O)OC1C(OS(=O)(=O)O)C(OS(=O)(=O)O)C(OS(=O)(=O)O)C(OS(=O)(=O)O)C1OS(=O)(=O)O` (stereo not drawn) [Inositol hexasulfate], the In vitro activity entry with HIV [1] is “HIV”.
In the case of `CCCCCCCCCCCCOS(=O)(=O)[O-].[Na+]` [Sodium lauryl sulfate], the In vitro activity result is “HIV” in the data set with HIV [1] and “HSV” with HSV.
On to “(14)-2-deoxy-2-sulfamido-3-O-sulfo-(14)-beta-D-glycopyranan”, for which the In vitro activity result in the data set with HIV [1] is on record as “HIV”.
In the case of “Achranthese bidentata polysaccharide sulfate”, in the data set with HSV-1, the In vitro activity result is recorded as “HSV-1”.
For the molecule Calcium spirulan, the In vitro activity result with HIV [1] is given as “HIV”; in the data set on HSV-1, “HSV-1”; in the data set with CMV, “CMV”; with measles, “measles”; with mumps it was “mumps”.
Take Carboxymethylchitin: in the data set on HSV, the In vitro activity result is “HSV”.
In the case of Chondroitin polysulfate, in the data set on HIV [1], the In vitro activity result was “HIV”.
For the molecule Curdlan sulfate, the values for the In vitro activity result with HIV [1] and in the data set on CMV were “HIV” and “CMV”, respectively.
Turning to Fucoidin, the “inhibition of HIV replication” value in the data set with HIV [1] is “inhibit HIV replication”. The values for the In vitro activity entry in the data set with HIV [1] and in the data set with Chlamydia were “HIV” and “Chlamydia”, respectively.
Consider Galactan sulfate, for which the In vitro activity entry with HIV [1] is on record as “HIV”; in the data set on HSV-1, “HSV-1”.
As to Glycyrrhizin sulfate, in the data set with HIV [1], the In vitro activity entry is “HIV”.
Regarding Heparin, in the data set with HIV [1], the “inhibition of HIV replication” value is “inhibit HIV replication”. Moreover, the In vitro activity result is reported as “HIV” in the data set with HIV [1]; “HHV-7” with HHV-7; “ASFV, Denge” in the data set with ASFV; “ASFV, Denge” with Denge virus; “virus, MLV” in the data set with MLV. The “inhibition of HIV in vitro” value with HIV [1] is recorded as “potent inhibitors”. For the same molecule, in the data set with CMV, the “inhibition of cytomegaloviruses in vitro” value is recorded as “potent inhibitors”. In addition, in the data set on HSV, the “inhibition of herpes simplex viruses in vitro” value is “potent inhibitors”. In the data set with paramyxoviruses, the “inhibition of paramyxoviruses in vitro” value is given as “potent inhibitors”. Also, the “inhibition of influenza viruses in vitro” value with influenza viruses is given as “potent inhibitors”. In addition, the “inhibition of semlikiviruses in vitro” value in the data set with semlikiviruses was “potent inhibitors”.
On to Lentinan sulfate, for which, in the data set on HIV [1], the “inhibition of HIV replication” value was “inhibit HIV replication” and the In vitro activity entry is reported as “HIV”.
Regarding Mannan sulfate, in the data set on HIV [1], the “inhibition of HIV replication” value is “inhibit HIV replication” and the In vitro activity result is recorded as “HIV”.
As to N-carboxymethylchitosan-N,O-sulfate, the In vitro activity entry with HIV [1] is on record as “HIV”; in the data set on RLV, “RLV”.
Turning to Pentosan polysulfate, in the data set on HIV [1], the “inhibition of HIV replication” value is recorded as “inhibit HIV replication”, the In vitro activity entry is given as “HIV” and the “inhibition of HIV in vitro” value is on record as “potent inhibitors”. The “inhibition of cytomegaloviruses in vitro” value with CMV is on record as “potent inhibitors”. Further, in the data set with HSV, the “inhibition of herpes simplex viruses in vitro” value is given as “potent inhibitors”. Besides, the In vitro activity result with Chlamydia is “Chlamydia”. The “inhibition of paramyxoviruses in vitro” value with paramyxoviruses is given as “potent inhibitors”. The “inhibition of influenza viruses in vitro” value in the data set with influenza viruses is listed as “potent inhibitors”. Besides, the “inhibition of semlikiviruses in vitro” value with semlikiviruses is reported as “potent inhibitors”.
With Polyacetal polysulfate, the In vitro activity result in the data set on HIV [1] is “HIV”.
For Polyinosinic-polycytidylic acid, the In vitro activity entry in the data set on HIV [1] was “HIV”.
In the case of Prunellin, in the data set on HIV [1], the In vitro activity entry is on record as “HIV”.
As to Rhamnan sulfate, the In vitro activity result in the data set on HIV [1] is on record as “HIV”; in the data set on HSV-1, “HSV-1”; in the data set on CMV, “CMV”.
On to Ribofuranan sulfate, for which the In vitro activity result in the data set with HIV [1] is listed as “HIV”.
On to Sulfate dodecyl laminarapentaoside, for which the In vitro activity result with HIV [1] is on record as “HIV”.
As to Sulfated N-deacetylatedchitin, in the data set on HSV, the In vitro activity entry is “HSV”.
Take Sulfated octadecyl maltohexaoside: the In vitro activity entry in the data set with HIV [1] is “HIV”.
Regarding Sulfated octadecyl ribofurnans, the In vitro activity entry with HIV [1] is listed as “HIV”.
On to Sulfated xylogalactans, for which, in the data set on HIV-1, the In vitro activity entry was “HIV-1”.
As to Sulfoevernan, in the data set with HIV [1], the “inhibition of HIV replication” value is “inhibit HIV replication” and the In vitro activity entry was “HIV”.
For Xylomannan sulfate, the In vitro activity result is on record as “HIV” in the data set on HIV [1], “HSV-1” in the data set on HSV-1 and “HSV-2” with HSV-2.
As to dextran sulfate, in the data set with HIV [1], the “inhibition of HIV replication” value is reported as “inhibit HIV replication” and the “inhibition of HIV in vitro” value was “potent inhibitors”. Further, the “inhibition of cytomegaloviruses in vitro” value in the data set on CMV is “potent inhibitors”. In addition, the “inhibition of herpes simplex viruses in vitro” value in the data set with HSV is reported as “potent inhibitors”. Besides, the “inhibition of paramyxoviruses in vitro” value in the data set on paramyxoviruses is “potent inhibitors”. Further, the “inhibition of influenza viruses in vitro” value with influenza viruses is “potent inhibitors”. Besides, the “inhibition of semlikiviruses in vitro” value in the data set on semlikiviruses is “potent inhibitors”. Further, where the note is “continuous infusion to maximally tolerated dose, subjects with symptomatic HIV infection, up to 14 days”, the “toxicity of continuous intravenous infusion” value was “toxic”. The “toxicity in mammals and HIV patients” value (mammals and HIV patients) is “significant toxicity”. The “activity against HIV in vivo” value with HIV [2] (commercial dextran sulfate) is reported as “poor activity”. The “beneficial effect in vivo” value in the data set with HIV [2] (continuous infusion, subjects with symptomatic HIV infection, up to 14 days) is recorded as “lack of any demonstration of beneficial effect in vivo”.
Take dextrin sulfate: the “inhibition of HIV replication” value with HIV [1] was “inhibit HIV replication”.
In the case of iota-carrageenan, the “inhibition of HIV replication” value in the data set on HIV [1] is on record as “inhibit HIV replication”.
With kappa-carrageenan, the “inhibition of HIV replication” value in the data set with HIV [1] is “inhibit HIV replication”.
On to lambda-carrageenan, for which, in the data set with HIV [1], the “inhibition of HIV replication” value is listed as “inhibit HIV replication”.
Regarding sulfated cyclodextrins, the “inhibition of HIV replication” value in the data set on HIV [1] was “inhibit HIV replication”.

B1: Cyanovirin-N (from cyanobacterium): Cyanovirin-N from cyanobacterium (protein, UniProt P81180 1-101, looked up)
Cyanovirin-N: LGKFSQTCYNSAIQGSVLTSTCERTNGGYNTSSIDLNSVIENVDGSLKWQPSNFIETCRNTQLAGSSELAAECKTRAQQFVSTKINLDDHIANIDGTLKYE
Turning to B1, the In vitro activity entry with HIV [1] is “HIV”.
